Measurements taken from patent US5079241A, “Cephalosporin derivatives and pharmaceutical compositions in which they are present” (Sanofi, priority 1987, dated 1992).
In brackets after ≈: the same amount, converted by molar mass. Read-outs that look alike come from different tables or passages of the source.

Legend:
[1] = protein binding by comparing two standard scales in baboon plasma and phosphate buffer; format: in vitro ADME; details: baboon plasma vs phosphate buffer (pH 7, 0.03M)
From the text: Furthermore, the protein binding is obtained by comparing two standard scales, one being prepared in baboon plasma and the other in phosphate buffer (pH 7, 0.03M).

[2] = test system: Pseudomonas aeruginosa NCTC 8203; test: bacteriostatic action in vitro by the dilution method (MIC); format: cell-based; details: NCTC8203, read-out: minimum inhibitory concentrations (MIC)
Method: (§1) The bacteriostatic action was determined in vitro by the dilution method. The study was carried out on both Gram-positive strains and Gram-negative strains.
(§2) The results for various products according to the invention, expressed as minimum inhibitory concentrations (MIC - μg/ml), are collated in Table 3.

[3] = test system: Klebsiella pneumoniae R30; test: as above; format: cell-based; details: read-out: minimum inhibitory concentrations (MIC)
Method: as §1, §2

[4] = test system: Escherichia coli SOL RL 90; test: as above; format: cell-based; details: SOLRL90, read-out: minimum inhibitory concentrations (MIC)
Method: as §1, §2

Staph. aureus Smith = test: as above; format: cell-based; details: Staphylococcus aureus, read-out: minimum inhibitory concentrations (MIC)
Method: as §1, §2

Providencia 155 = test: as above; format: cell-based; details: read-out: minimum inhibitory concentrations (MIC)
Method: as §1, §2

[5] = test system: Escherichia coli C1/Col E1::Tn3; test: as above; format: cell-based; details: read-out: minimum inhibitory concentrations (MIC)
Method: as §1, §2

[6] = test system: Proteus vulgaris GN 76/C-1; test: as above; format: cell-based; details: GN76, read-out: minimum inhibitory concentrations (MIC)
Method: as §1, §2

[7] = pharmacokinetic behavior in baboons, 20 mg/kg (Tables 4 and 6); format: in vivo; details: baboon; for Cmax: read-out: Max plasma concentration; for AUC(0-t) at 6 h: trapezium method; for concentration at 0.5 h: 30 minutes; for concentration at 0.75 h: 45 minutes; for concentration at 1 h: 60 minutes; for concentration at 1.5 h: 90 minutes; for concentration at 2 h: 120 minutes; for concentration at 3 h: 180 minutes; for concentration at 4 h: 240 minutes; for concentration at 5 h: 300 minutes; for dose excreted at 6 h: urine, 6 h (Table 6), read-out: Excretion in the urine
Method: Furthermore, the pharmacokinetic behavior of the products according to the invention was studied in baboons after administration at a dose of 20 mg/kg by intramuscular injection or intravenous injection.
Blood samples taken at various times after administration are used to determine the plasma concentration of the product studied by microbiological assay.
It is thus possible to construct the curve showing the plasma concentration as a function of time, and to determine different pharmacokinetic parameters of the compound studied:
the elimination half-life (t1/2 β) is calculated by the formula [formula] in which β represents the elimination gradient or slope;
the area under the curve (AUC) is determined by the trapezium method.
The plasma concentrations obtained with various products of the invention are collated in Tables 4 and 5. They are expressed in μg/ml.

[8] = plasma, 20 mg/kg, 20 mg/kg (Table 6), read-out: Plasma concentration at 6 h
[9] = plasma, 20 mg/kg, 360 minutes, read-out: plasma concentration

SMILES	fraction unbound [1]	MIC [2]	MIC [3]	MIC [4]	MIC (Staph. aureus Smith)	MIC (Providencia 155)	MIC [5]	MIC [6]	Tmax ([7]; plasma, 20 mg/kg (Table 6))	Cmax ([7]; plasma, 20 mg/kg (Table 6))	AUC(0-t) at 6 h ([7]; plasma, 20 mg/kg (Table 6))	concentration at 6 h [7, 8]	concentration at 10 min ([7]; plasma, 20 mg/kg)	concentration at 20 min ([7]; plasma, 20 mg/kg)	concentration at 0.5 h ([7]; plasma, 20 mg/kg)	concentration at 0.75 h ([7]; plasma, 20 mg/kg)	concentration at 1 h ([7]; plasma, 20 mg/kg)	concentration at 1.5 h ([7]; plasma, 20 mg/kg)	concentration at 2 h ([7]; plasma, 20 mg/kg)	concentration at 3 h ([7]; plasma, 20 mg/kg)	other results
CC(C)(O/N=C(\C(=O)NC1C(=O)N2C(C(=O)O)=C(COC(=O)c3ccc(NC(=O)[C@@H](N)CCCN)c(O)c3)CSC12)c1csc(N)n1)C(=O)O (stereo partly shown) [SR 44128]	0.16	2 µg/mL (≈ 2.72 µM)	1 µg/mL (≈ 1.36 µM)	2 µg/mL (≈ 2.72 µM)	8 µg/mL (≈ 10.9 µM)	1 µg/mL (≈ 1.36 µM)	0.12 µg/mL (≈ 0.163 µM)	0.12 µg/mL (≈ 0.163 µM)	2 h	195 µg/mL	898 µg·h/mL	104 µg/mL	62.9 µg/mL	115 µg/mL	135 µg/mL	177 µg/mL	188 µg/mL	188 µg/mL	195 µg/mL	169 µg/mL	concentration at 4 h ([7]; plasma, 20 mg/kg): 142 µg/mL; concentration at 5 h ([7]; plasma, 20 mg/kg): 123 µg/mL; concentration at 6 h [7, 9]: 105 µg/mL; dose excreted at 6 h ([7]; 20 mg/kg): 72%
CC(C)(O/N=C(\C(=O)NC1C(=O)N2C(C(=O)O)=C(COC(=O)c3ccc(NC(=O)C(N)CCN)c(O)c3)CSC12)c1csc(N)n1)C(=O)O (stereo not shown) [SR 44130]	0.08	2 µg/mL (≈ 2.77 µM)	1 µg/mL (≈ 1.39 µM)	2 µg/mL (≈ 2.77 µM)	8 µg/mL (≈ 11.1 µM)	1 µg/mL (≈ 1.39 µM)	0.25 µg/mL (≈ 0.347 µM)	0.12 µg/mL (≈ 0.166 µM)	1.5 h	143 µg/mL	707 µg·h/mL	90.4 µg/mL	39.1 µg/mL	60.9 µg/mL	81.9 µg/mL	105 µg/mL	122 µg/mL	143 µg/mL	142 µg/mL	138 µg/mL	concentration at 4 h ([7]; plasma, 20 mg/kg): 135 µg/mL; concentration at 5 h ([7]; plasma, 20 mg/kg): 109 µg/mL; concentration at 5.5 h ([7]; plasma, 20 mg/kg, 330 minutes): 93.8 µg/mL; concentration at 6 h [7, 9]: 90.4 µg/mL; dose excreted at 6 h ([7]; 20 mg/kg): 37%
